# Results taken from patent US4871748A, “Phenylpropargylamine derivatives” (May & Baker Limited, priority 1984, dated 1989).
# Experiment: Acute Oral Toxicity in Mice (Laboratory Strain)
# Details: mouse, in vivo, aqueous suspension, mg/kg animal body weight, observed until no deaths for at least three days
# Experimental: Acute Oral Toxicity in Mice (Laboratory Strain)
# Groups of mice were dosed orally with graded doses of the test compound in aqueous suspension and observed until there had been no deaths for at least three days. The acute oral LD50, that is to say the dose in mg/kg animal body weight necessary to kill 50% of the mice, was determined from the numbers of animals for each dose which died during the observation period by reference to published tables.
row,Structure (SMILES),LD50
1,"CC(=O)O.CC(C)(CO)C1CCN(CC#Cc2cc(C(F)(F)F)cc(C(F)(F)F)c2)CC1 [1 (as acetate), 1-(3,5-bistrifluoromethylphenyl)-3-[4-(1,1-dimethyl-2-hydroxyethyl)piperidino]prop-1-yne acetate]",95 mg/kg
2,"COCC(C)(C)C1CCN(CC#Cc2cc(C(F)(F)F)cc(C(F)(F)F)c2)CC1.Cl [2 (as hydrochloride), 1-(3,5-bistrifluoromethylphenyl)-3-[4-(1,1-dimethyl-2-methoxyethyl)piperidino]prop-1-yne hydrochloride]",68 mg/kg
3,"CC(C)(CO)C1CCN(CC#Cc2cc(C(F)(F)F)cc(C(F)(F)F)c2)CC1.NS(=O)(=O)O [1 (as sulphamate), 1-(3,5-bistrifluoromethylphenyl)-3-[4-(1,1-dimethyl-2-hydroxyethyl)piperidino]prop-1-yne sulphamate]",72 mg/kg
4,"CC(C)(C=O)C1CCN(CC#Cc2cc(C(F)(F)F)cc(C(F)(F)F)c2)CC1.Cl [4 (as hydrochloride), 1-(3,5-bistrifluoromethylphenyl)-3-[4-(1,1-dimethyl-2-oxoethyl)piperidino]prop-1-yne hydrochloride]",68 mg/kg
5,"CC(=O)OCC(C)(C)C1CCN(CC#Cc2cc(C(F)(F)F)cc(C(F)(F)F)c2)CC1.Cl [3 (as hydrochloride), 1-(3,5-bistrifluoromethylphenyl)-3-[4-(1,1-dimethyl-2-acetyloxyethyl)piperidino]prop-1-yne hydrochloride]",68 mg/kg
6,"CC(C)(CO)C1CCN(CC#Cc2cc(C(F)(F)F)cc(C(F)(F)F)c2)CC1.Cl [1 (as hydrochloride), 1-(3,5-bistrifluoromethylphenyl)-3-[4-(1,1-dimethyl-2-hydroxyethyl)piperidino]-prop-1yne hydrochloride]",62 mg/kg
7,"CC(C)(CO)C1CCN(CC#Cc2cc(C(F)(F)F)cc(C(F)(F)F)c2)CC1.O=[N+]([O-])O [1 (as nitrate), 1-(3,5-bistrifluoromethylphenyl)-3-[4-(1,1-dimethyl-2-hydroxyethyl)piperidino]prop-1-yne nitrate]",72 mg/kg
8,"CC(C)(CO)C1CCN(CC#Cc2cc(C(F)(F)F)cc(C(F)(F)F)c2)CC1 [1 (as free base), 1-(3,5-bistrifluoromethylphenyl)-3-[4-(1,1-dimethyl-2-hydroxyethyl)piperidino]prop-1-yne]",78 mg/kg
